Experimental findings from US20020094522A1, “Means and methods for monitoring non-nucleoside reverse transcriptase inhibitor antiretroviral therapy and guiding therapeutic decisions in the treatment of HIV/AIDS” (priority 2000, published 2002) are described below.

Like-named read-outs stand apart in the source and are kept apart here.

One assay deals with K101E-G190A-RTV. An excerpt:
(§1) The resistance test vectors containing a functional luciferase gene cassette were constructed and host cells were transfected with the resistance test vector DNA. The resistant test vectors contained patient-derived reverse transcriptase and protease sequences that were either susceptible or resistant to the antiretroviral agents, such as nucleoside reverse transcriptase inhibitors, non-nucleoside reverse transcriptase inhibitors and protease inhibitors. The resistance test vector viral particles produced by transfecting the resistance test vector DNA into host cells, either in the presence or absence of protease inhibitors, were used to infect target host cells grown either in the absence of NRTI or NNRTI or in the presence of increasing concentrations of the drug. The amount of luciferase activity produced in infected target host cells in the presence of drug was compared to the amount of luciferase produced in infected target host cells in the absence of drug. Drug resistance was measured as the amount of drug required to inhibit by 50% the luciferase activity detected in the absence of drug (inhibitory concentration 50%, IC50). The IC50 values were determined by plotting percent drug inhibition vs. log10 drug concentration.
(§2) Host cells were seeded in 10-cm-diameter dishes and were transfected several days after plating with resistance test vector plasmid DNA and the envelope expression vector. Transfections were performed using a calcium-phosphate precipitation procedure. The cell culture media containing the DNA precipitate was replaced with fresh medium, from one to 24 hours, after transfection. Cell culture media containing resistance test vector viral particles was harvested one to four days after transfection and was passed through a […] filter before being stored at −80° C. HIV capsid protein (p24) levels in the harvested cell culture media were determined by an EIA method as described by the manufacturer (SIAC; Frederick, Md.). Before infection, target cells (293 and 293/T) were plated in cell culture media. Control infections were performed using cell culture media from mock transfections (no DNA) or transfections containing the resistance test vector plasmid DNA without the envelope expression plasmid. One to three or more days after infection the media was removed and cell lysis buffer (Promega) was added to each well. […] The inhibitory effect of the drug was determined using the following equation: […]
(§3) where RLUluc [drug] is the relative light unit of luciferase activity in infected cells in the presence of drug and RLUluc is the Relative Light Unit of luciferase activity in infected cells in the absence of drug. IC50 values were obtained from the sigmoidal curves that were generated from the data by plotting the percent inhibition of luciferase activity vs. the log10 drug concentration.
(§4) The K101E, K103N and G190A mutations were introduced alone and in combination into resistance test vectors using the mega-primer method for site-directed mutagenesis (Sakar and Sommar, Ibid.).

Another assay deals with K103N-G190A-RTV.
Text: as §1, §2, §3, §4

Another assay deals with Y181C-F227L-RTV. Put plainly: Phenotypic susceptibility assay, Y181C-F227L-RTV. In kind it is cell-based, HIV-1. The conditions noted are these: values <1 = increased susceptibility.
Text: as §1
as §2, with “Md.).” for “Md.). Before infection, target cells (293 and 293/T) were plated in cell culture media. Control infections were performed using cell culture media from mock transfections (no DNA) or transfections containing the resistance test vector plasmid DNA without the envelope expression plasmid. One to three or more days after infection the media was removed and cell lysis buffer (Promega) was added to each well.”

In assay [1] the test system is E138A-RTV (HIV reverse transcriptase E138A). The assay can be described thus: Phenotypic susceptibility assay, E138A-RTV. The assay is classed as cell-based, HIV-1. To be noted: site directed mutant.
Text: as §1, with “Drug resistance was measured as the amount of drug required to inhibit by 50% the luciferase activity detected in the absence of drug (inhibitory concentration 50%, IC50).” left out
(§5) Host cells were seeded in 10-cm-diameter dishes and were transfected several days after plating with resistance test vector plasmid DNA and the envelope expression vector. […] HIV capsid protein (p24) levels in the harvested cell culture media were determined by an EIA method as described by the manufacturer (SIAC; Frederick, Md.). […] The inhibitory effect of the drug was determined using the following equation: […]
(§6) The E138A mutation alone and in combination with Y188L was introduced into resistance test vectors using the megaprimer method for site-directed mutagenesis (Sakar and Sommar, Ibid.). Resistance test vectors containing the E138A mutation (E138A-RTV) or the E138 mutation along with the […] mutation (E138A-Y188L-RTV) were then tested using the phenotypic assay described earlier and the results were compared to those determined using a genetically defined resistance test vector that was wild type at positions 188 and 138.

The subject of assay [2] is F227L-RTV (HIV reverse transcriptase F227L). Put plainly: Phenotypic susceptibility assay, F227L-RTV. The assay is classed as cell-based, HIV-1. To be noted: values <1 = increased susceptibility.
Text: as §1
as §2, with “Md.).” for “Md.). Before infection, target cells (293 and 293/T) were plated in cell culture media. Control infections were performed using cell culture media from mock transfections (no DNA) or transfections containing the resistance test vector plasmid DNA without the envelope expression plasmid. One to three or more days after infection the media was removed and cell lysis buffer (Promega) was added to each well.”

In a further assay the test system is V106A-Y181C-RTV. The assay can be described thus: Phenotypic susceptibility assay, V106A-Y181C-RTV. In kind it is cell-based, HIV-1. The conditions noted are these: site directed mutant.
Text: as §1
as §2, with “Md.).” for “Md.). Before infection, target cells (293 and 293/T) were plated in cell culture media. Control infections were performed using cell culture media from mock transfections (no DNA) or transfections containing the resistance test vector plasmid DNA without the envelope expression plasmid. One to three or more days after infection the media was removed and cell lysis buffer (Promega) was added to each well.”

Assay [3] has as its system G190A-RTV (HIV reverse transcriptase G190A). The assay can be described thus: Phenotypic susceptibility assay, G190A-RTV. In kind it is cell-based, HIV-1.
Text: as §1, §2
where RLUluc [drug] is the relative light unit of luciferase activity in infected cells in the presence of drug and RLUluc is the Relative Light Unit of luciferase activity in infected cells in the absence of drug. […]

For assay [4], the system named is Y188C-RTV (HIV reverse transcriptase Y188C).
Text: as §1, §2, §3

Another assay has as its system A98G-G190S-RTV. The assay can be described thus: Phenotypic susceptibility assay, A98G-G190S-RTV. The assay is classed as cell-based, HIV-1. The conditions noted are these: values <1 = increased susceptibility.
Text: as §1
as §2, with “Md.).” for “Md.). Before infection, target cells (293 and 293/T) were plated in cell culture media. Control infections were performed using cell culture media from mock transfections (no DNA) or transfections containing the resistance test vector plasmid DNA without the envelope expression plasmid. One to three or more days after infection the media was removed and cell lysis buffer (Promega) was added to each well.”

Assay [5] deals with K103N-RTV (HIV reverse transcriptase K103N). The assay can be described thus: Phenotypic susceptibility assay, K103N-RTV. The conditions noted are these: site directed mutant. In kind it is cell-based, HIV-1.
Text: as §1
(§7) Host cells were seeded in 10-cm-diameter dishes and were transfected several days after plating with resistance test vector plasmid DNA and the envelope expression vector. Transfections were performed using a calcium-phosphate precipitation procedure. […] HIV capsid protein (p24) levels in the harvested cell culture media were determined by an EIA method as described by the manufacturer (SIAC; Frederick, Md.). […] The inhibitory effect of the drug was determined using the following equation: […]
(§8) The mutations Y188L, L100I and K103N were introduced alone and in combinationn into resistance test vectors using the mega-primer method for site-directed mutagenesis (Sakar and Sommar, Ibid.). […] We determined the pattern of phenotypic susceptibility to the NNRTIs, delavirdine, nevlrapine and efavirenz, in all 6 vectors.

Assay [6] deals with RTV-B clone 1 (patient sample B). Put plainly: Phenotypic susceptibility assay, RTV-B clone 1. In kind it is cell-based, HIV-1. The conditions noted are these: values <1 = increased susceptibility.
Text: as §1
as §2, with “Md.).” for “Md.). Before infection, target cells (293 and 293/T) were plated in cell culture media. Control infections were performed using cell culture media from mock transfections (no DNA) or transfections containing the resistance test vector plasmid DNA without the envelope expression plasmid. One to three or more days after infection the media was removed and cell lysis buffer (Promega) was added to each well.”

The test system of assay [7] is L100I-RTV (HIV reverse transcriptase L100I). The assay can be described thus: Phenotypic susceptibility assay, L100I-RTV. To be noted: site directed mutant. In kind it is cell-based, HIV-1.
Text: as §1, §7, §8

The subject of assay [8] is V189L-RTV (HIV reverse transcriptase V189L). The assay can be described thus: Phenotypic susceptibility assay, V189L-RTV. The assay is classed as cell-based, HIV-1. The conditions noted are these: V189-RTV (V189L), site directed mutant.
Text: as §1
as §2, with “Md.).” for “Md.). Before infection, target cells (293 and 293/T) were plated in cell culture media. Control infections were performed using cell culture media from mock transfections (no DNA) or transfections containing the resistance test vector plasmid DNA without the envelope expression plasmid. One to three or more days after infection the media was removed and cell lysis buffer (Promega) was added to each well.”

Assay [9] relates to Y188L-RTV (HIV reverse transcriptase Y188L). Put plainly: Phenotypic susceptibility assay, Y188L-RTV. The assay is classed as cell-based, HIV-1. To be noted: site directed mutant.
Text: as §1
as §2, with “Md.).” for “Md.). Before infection, target cells (293 and 293/T) were plated in cell culture media. Control infections were performed using cell culture media from mock transfections (no DNA) or transfections containing the resistance test vector plasmid DNA without the envelope expression plasmid. One to three or more days after infection the media was removed and cell lysis buffer (Promega) was added to each well.”

The subject of a further assay is E138A-Y188L-RTV. Put plainly: Phenotypic susceptibility assay, E138A-Y188L-RTV. The assay is classed as cell-based, HIV-1. To be noted: site directed mutant.
Text: as §1, with “Drug resistance was measured as the amount of drug required to inhibit by 50% the luciferase activity detected in the absence of drug (inhibitory concentration 50%, IC50).” left out
as §5, §6

Another assay concerns V106A-F227-RTV. The assay can be described thus: Phenotypic susceptibility assay, V106A-F227-RTV. The assay is classed as cell-based, HIV-1. The conditions noted are these: site directed mutant.
Text: as §1
as §2, with “Md.).” for “Md.). Before infection, target cells (293 and 293/T) were plated in cell culture media. Control infections were performed using cell culture media from mock transfections (no DNA) or transfections containing the resistance test vector plasmid DNA without the envelope expression plasmid. One to three or more days after infection the media was removed and cell lysis buffer (Promega) was added to each well.”

Regarding `CC(C)Nc1cccnc1N1CCN(C(=O)c2cc3cc(NS(C)(=O)=O)ccc3[nH]2)CC1` [delavirdine], the “fold loss of susceptibility compared to wild type control RTV” value (“fold loss of susceptibility” for short) in the assay with K101E-G190A-RTV worked out at 2 fold; in the assay on K103N-G190A-RTV, 40 fold; in the assay with V106A-Y181C-RTV it was 100 fold; in assay [4], 3 fold; in [5] it was 50 fold; in assay [7], 30 fold. Further, the figures for the “fold loss of susceptibility” value (in [9]; in the assay with E138A-Y188L-RTV; in the assay with V106A-F227-RTV) were 9 fold, 75 fold and 3 fold, respectively. In addition, the “fold change in susceptibility compared to wild type control RTV” value (shortened to “fold change … to wild type control RTV”) is reported as 0.89 fold with Y181C-F227L-RTV; 1.6 fold in assay [1]; 0.03 fold in assay [2]; 0.8 fold in the assay with A98G-G190S-RTV; 1.8 fold in assay [8]. The “change in susceptibility compared to wild type reference RTV” value in [3] is “slightly more susceptible to delavirdine”; in assay [3] (listed as delviridine) it was “increased susceptibility”. The “fold change in susceptibility (IC50)” value in assay [6] is 0.55 fold.

In the case of `O=C1Nc2ccc(Cl)cc2[C@@](C#CC2CC2)(C(F)(F)F)O1` [efavirenz], the “fold loss of susceptibility” value with K101E-G190A-RTV is reported as 120 fold; with K103N-G190A-RTV it was 215 fold; in the assay with V106A-Y181C-RTV it was 4 fold; in [4], 20 fold; in assay [5], 30 fold; in [7], 10 fold. Also, the “fold loss of susceptibility” value came to 110 fold in assay [9], 88 fold in the assay with E138A-Y188L-RTV and 8 fold in the assay with V106A-F227-RTV. Further, the “fold change … to wild type control RTV” value is 0.99 fold with Y181C-F227L-RTV; 1.4 fold in assay [1]; 0.48 fold in assay [2]; 8 fold in assay [3] (site directed mutant); “greater than 250 fold” in the assay with A98G-G190S-RTV; 1.3 fold in [8]. For the same compound, in assay [6], the “fold change in susceptibility (IC50)” value worked out at 250 fold.

`Cc1ccnc2c1NC(=O)c1cccnc1N2C1CC1` [nevirapine]: the “fold loss of susceptibility” value was “greater than 800 fold” in the assay on K101E-G190A-RTV; “greater than 800 fold” in the assay on K103N-G190A-RTV; “greater than 800 fold” with V106A-Y181C-RTV; 30 fold in assay [4]; 55 fold in assay [5]; 3 fold in assay [7]. Besides, the “fold loss of susceptibility” value (in assay [9]; in the assay with E138A-Y188L-RTV; in the assay on V106A-F227-RTV) was “greater than 800 fold” throughout. The “fold change … to wild type control RTV” value with Y181C-F227L-RTV is 285 fold; in assay [1], 1.3 fold; in assay [2] it was 3 fold; in the assay on A98G-G190S-RTV it was “greater than 800 fold”; in assay [8], 1.3 fold. Further, the “change in susceptibility compared to wild type reference RTV” value in assay [3] was “markedly less susceptible to nevirapine”. Besides, in [6], the “fold change in susceptibility (IC50)” value was determined as 640 fold.
